Activity calls are given as the source filed them. No cut-off for these calls is given here.
Tested on: PC-12
Assay: Neuroprotective activity against okadaic acid-induced cell injury in rat PC12 cells assessed as cell viability at 10 uM after 48 hrs by MTT assay (reference value: 60.4 +/- 23%)
Format: functional
Conditions: not given

`CC(=O)OC[C@@]12[C@@H](OC(=O)/C=C/c3ccccc3)CC[C@](C)(O)[C@]13OC(C)(C)[C@H]([C@@H](O)[C@H]2OC(=O)c1ccoc1)[C@H]3OC(C)=O` was tested. Which Activity did it give?
Its Activity is “inactive”.

Which Activity does the source give for `CC(=O)OC[C@@]12[C@@H](OC(=O)/C=C/c3ccccc3)CC[C@](C)(O)[C@]13OC(C)(C)[C@H]([C@@H](O)[C@H]2O)[C@H]3OC(C)=O` here?
Its Activity is “inactive”.

`CC(=O)OC[C@@]12[C@@H](OC(=O)/C=C/c3ccccc3)CC[C@](C)(O)[C@]13OC(C)(C)[C@H](C(=O)[C@H]2OC(=O)c1ccoc1)[C@H]3O` was tested. Which Activity did it give?
The Activity was “inactive”.

Which Activity does the source give for `CC(=O)O[C@@H]1[C@H]2[C@@H](O)[C@@H](OC(=O)c3ccoc3)[C@]3(CO)[C@@H](OC(=O)/C=C/c4ccccc4)CC[C@](C)(O)[C@@]13OC2(C)C` here?
The Activity was “inactive”.

How did the Activity turn out when `CC(=O)OC[C@@]12[C@@H](OC(=O)/C=C\c3ccccc3)CC[C@](C)(O)[C@]13OC(C)(C)[C@H](C(=O)[C@H]2OC(=O)c1ccoc1)[C@H]3O` was run?
Its Activity is “inactive”.

How did the Activity turn out when `CC(=O)OC[C@@]12[C@@H](OC(=O)/C=C/c3ccccc3)CC[C@](C)(O)[C@]13OC(C)(C)[C@H]([C@@H](OC(C)=O)[C@H]2OC(=O)c1ccoc1)[C@H]3O` was run?
Its Activity is “inactive”.

Which Activity does the source give for `CC(=O)OC[C@@]12[C@@H](OC(=O)c3ccoc3)CC[C@@H](C)[C@]13OC(C)(C)[C@H]([C@@H](OC(C)=O)[C@H]2OC(=O)c1cccnc1)[C@H]3OC(=O)c1ccoc1` here?
Its Activity is “inactive”.

For `CC(=O)OC[C@@]12[C@@H](OC(=O)/C=C\c3ccccc3)CC[C@](C)(O)[C@]13OC(C)(C)[C@H]([C@@H](OC(C)=O)[C@H]2OC(=O)c1ccoc1)[C@H]3O`, which Activity is on record?
Its Activity is “inactive”.

Same assay, conditions: PC-12, 48 h, read-out: Activity

How did the viability at 10 µM turn out when `CC(=O)OC[C@@]12[C@@H](OC(=O)/C=C/c3ccccc3)CC[C@@H](C)[C@]13OC(C)(C)[C@H]([C@@H](OC(C)=O)[C@H]2OC(=O)c1cccnc1)[C@H]3OC(C)=O` was run?
The viability at 10 µM was 81.2%.

Which viability at 10 µM does the source give for `CC(=O)OC[C@]12[C@H](OC(C)=O)[C@H](OC(C)=O)[C@@H]3[C@@H](OC(=O)c4ccccc4)[C@@]14OC3(C)COC(=O)c1cccnc1C(C)C(C)C(=O)O[C@@H]([C@H](O)[C@@H]2OC(=O)c1ccccc1)[C@]4(C)O` (stereo partly drawn) here?
The viability at 10 µM was 86.2%.

`CC(=O)OC[C@@]12[C@@H](OC(=O)c3ccoc3)CC[C@@H](C)[C@]13OC(C)(C)[C@H]([C@@H](OC(C)=O)[C@H]2OC(=O)c1cccnc1)[C@H]3OC(C)=O` was tested. Which viability at 10 µM did it give?
The viability at 10 µM was 72.4%.

Which viability at 10 µM does the source give for `CC(=O)OC[C@@]12[C@@H](OC(=O)/C=C\c3ccccc3)CC[C@@H](C)[C@]13OC(C)(C)[C@H]([C@@H](OC(C)=O)[C@H]2OC(=O)c1cccnc1)[C@H]3OC(C)=O` here?
Its viability at 10 µM is 75.7%.

Which viability at 10 µM does the source give for `CC(=O)OC[C@@]12[C@@H](OC(C)=O)CC[C@@H](C)[C@]13OC(C)(C)[C@H]([C@@H](OC(C)=O)[C@H]2OC(=O)c1cccnc1)[C@H]3OC(=O)c1ccoc1` here?
Its viability at 10 µM is 71.5%.
